Assay results from paper PMC7904827 (Scientific Reports, 2021).
Where a name gives a salt, the structure may show the parent alone. Read-outs that look alike come from different tables or passages of the source. Each block holds one compound with its values, some of them ahead of it.

What was measured:
[1] = set-up: method as in PMID 29273587; settings: cited from earlier work
[2] = tested on: neonatal ventricular cardiomyocytes (NVCMs); settings: same assay; cited from earlier work
[3] = tested on: neonatal ventricular cardiomyocytes (NVCMs); test: Toxicity of the prodrugs alone in NVCMs (LDH release); type: cell-based, rat; set-up: key to LDH release, statistical significance compared to control: c - compared to control; P ≤ 0.01; settings: prodrug alone 1–100 µM, NVCMs; n.s. or c in Fig. S2
Protocol: (§1) After 3 h, DAU solution (1.2 µM) was added to the media. After another 3 h, the medium was replaced with new (drug-free) exposure medium, and the cardiomyocytes were then kept until the end of the experiment. In addition to cytoprotective properties, the toxicity of the studied agent was also examined; this experiment was performed as described above with only the DAU addition step omitted.
(§2) Forty-five hours after the last medium exchange, a sample of medium was taken from each well to assess lactate dehydrogenase (LDH) activity[27]–[29]. For details, see the Supplementary material.
(§3) 1.5 LDH activity evaluation
(§4) The control wells were treated with lysis buffer (0.1 M potassium phosphate, 1% Triton
(§5) X-100, 1 mM DTT, 2 mM EDTA; pH 7.8; 15 min; room temperature) to measure the total
(§6) cellular LDH level (sum of the activity in the control medium and the lysate). The activity of
(§7) LDH was assayed in Tris-HCl buffer (pH 8.9) containing 35 mM sodium lactate and 5 mM
(§8) NAD+. The rate of NAD+ reduction was monitored spectrophotometrically at 340 nm for 2 min.
(§9) The slope of the linear region and molar absorption coefficient e = 6.22*10 3 M/cm were used
(§10) to calculate the LDH activity, and the data were expressed as a percentage of total L DH activity. […]

[4] = Approximate solubility in distilled water at room temperature; type: physicochemical; settings: for solubility: distilled water, room temperature
Protocol: The syntheses of the target prodrugs were performed according to a known three-step procedure with some modifications. Target prodrugs GK-667, GK-678 and GK-691 were obtained in 34%, 37% and 17% overall yields, respectively. […] The resulting solutions remained physically stable for at least two hours at room temperature.

[5] = ICRF-193 release from the prodrugs during incubation in DMEM (thermomixer, UHPLC-MS/MS); type: in vitro ADME; settings: 100 µM, 37 °C
Protocol: All samples were spiked with the internal standards. DMEM or buffer (100 μL) was diluted with an ice-cold methanol/water mixture (20:80, v/v), mixed and analyzed. Plasma (50 μL) was precipitated with ice-cold methanol (1:5, v/v), mixed (20 s) and centrifuged (10 min, 10,000 rpm, 4 °C). NVCM pellets (4.8 × 10^6 cells) were precipitated with ice-cold methanol (250 μL), mixed (20 s), sonicated in a cold ultrasonic bath (75 s), mixed (30 s) and centrifuged (10 min, 10,000 rpm, 4 °C). The supernatants from the plasma and NVCM extractions were filtered (0.22 μm, PVDF) prior to analysis. For assay of the prodrugs, the samples were acidified with formic acid to a final concentration of 0.5%.
The samples were analyzed using two UHPLC instruments both coupled to a triple quadrupole mass spectrometer. […] Positive ionization mode was used in both methods. The analytical columns tested are characterized in the Supplementary materials.
The prodrugs (100 μM) were incubated (37 °C) in DMEM in a thermomixer (Thermomixer Comfort, Eppendorf, Germany) under gentle mixing (350 rpm) for 48 h.
From all of the above described experiments, samples were taken at predefined intervals, treated and immediately analyzed. All experiments were performed in four replicates, and the results are expressed as the mean ± SD.

[6] = tested on: neonatal ventricular cardiomyocytes (NVCMs); test: In vitro cardioprotection bioassay against daunorubicin toxicity (LDH release); type: cell-based, rat; settings: 3 h preincubation, DAU 1.2 µM, LDH release after 48 h
Protocol: NVCMs were isolated in-house from 1- to 3-day-old Wistar rats as described previously. The use of animals and experimental protocols were approved by Charles University, Faculty of Pharmacy Animal Welfare Committee. All experiments were performed in accordance with Directive 2010/63/EU on the Protection of Animals Used for Scientific Purposes and in compliance with Animal Research: Reporting of In Vivo Experiments (ARRIVE) guidelines. Newly isolated cardiomyocytes were left for 40 h to form a monolayer of spontaneously beating cardiomyocytes in seeding medium (DMEM/F12 supplemented with 10% HS, 5% FBS, 4% PYR and 1% P/S), which was then replaced with culture medium (DMEM/F12 supplemented with 5% FBS, 4% PYR and 1% P/S). The medium was replaced again after 24 h for new culture medium.
as §1, §2, §3, §4, §5, §6, §7, §8, §9, §10

[7] = Freeze-thaw and storage stability in plasma at -80 °C; type: in vitro ADME, rabbit; settings: for % of initial concentration, 1st freeze-thaw cycle / % of initial concentration, 2nd freeze-thaw cycle: plasma, -80 °C
Protocol: ICRF-193 and ICRF-193met in plasma, respectively. Unweighted and weighted (1/x and 1/x2) linear regression was applied to obtain the best fitting calibration model. […]
(§11) Stability of the analytes was examined at low and high concentrations. Process s tability (n=3) in plasma was tested for 20 min at either laboratory temperature (23 °C) or on ice (4 °C, only for GK-667). Post-preparation stability was examined for 8 to 10 h in an autosampler (8 °C, n=3) for all treated matrices. […]
plasma was tested at -80 °C and the freezing cycle was repeated twice (n=3). […]

[8] = In vivo pharmacokinetic study of GK-667 in rabbits, noncompartmental analysis; set-up: species or system rabbit
Protocol: GK-667 was freshly dissolved in saline (5 mg/mL) before each administration. New Zealand White male rabbits (n = 6, ∼3.8 kg) received GK-667 (5 mg/kg) administered as a single slow (2 min) intravenous dose bolus to the ear marginal vein. Blood (∼1 mL) was sampled from veins on the contralateral ear at selected time points after drug administration (5 min to 9 h) into BD Vacutainers (BD Biosciences, Plymouth, UK) containing lithium heparin. Collected blood samples were immediately centrifuged (2 min, 3000 rpm, 4 °C), and plasma samples were harvested directly.
Plasma samples taken 0 to 20 min after GK-667 administration were immediately processed by the addition of formic acid and precipitation with ice-cold methanol. The supernatants were then analyzed for all analytes, including the intact prodrug. This was essential to ensure the appropriate determination of highly labile GK-667 at the first sampling intervals, and the whole procedure was validated for this purpose. […] Thus, all following plasma samples were immediately shock-frozen in liquid nitrogen and stored at -80 °C until analysis.
For drug administration and blood sampling, light anesthesia was induced in rabbits with a mixture of ketamine (25 mg/kg, i.m.) and midazolam (2.5 mg/kg, i.m.); sedation was then maintained with midazolam when needed. The blood withdrawn from the animals was compensated with an appropriate volume of sterile saline. All in vivo experiments and procedures were approved and supervised by the Animal Welfare Committee of the Faculty of Medicine in Hradec Kralove (Charles University), and the experiments were performed in compliance with the ARRIVE guidelines.
Standard noncompartmental analysis was performed using Kinetica software (version 4.0, Thermo Fisher Scientific Inc., USA). The population parameter estimation for nonlinear mixed effect models was conducted using Monolix version 2019R2 software (Antony, France: Lixoft SAS, 2019, http://lixoft.com/products/monolix/). The stochastic approximation expectation maximization (SAEM) algorithm coupled with Markov Chain Monte Carlo (MCMC) without the use of approximations (linearization) was used for the estimation of the likelihood. For evaluation of the goodness-of-fit, the following plots were assessed: observed versus individual predicted concentrations, weighted residuals versus time and weighted residuals versus predictions. Individual parameter values were obtained as empirical Bayes estimates. A visual predictive check with 1000 simulated data sets was performed.

[9] = Population pharmacokinetic analysis in rabbits; type: in vivo, rabbit; settings: population median
Description: All model parameters of ICRF-193 and ICRF-193met could not be simultaneously estimated by stochastic approximation expectation maximization (SAEM) in one step. […] A maximum likelihood estimation was used to calculate the parameters CLmet, CLother, V4, and CLICRF-193met. For the remaining parameters of the parent-metabolite model (Fig. S5), a maximum a posteriori (MAP) estimation was adopted. The residual error in the population kinetic analysis was best described with a proportional model.
Standard noncompartmental analysis was performed using Kinetica software (version 4.0, Thermo Fisher Scientific Inc., USA). The population parameter estimation for nonlinear mixed effect models was conducted using Monolix version 2019R2 software (Antony, France: Lixoft SAS, 2019, http://lixoft.com/products/monolix/). […] For evaluation of the goodness-of-fit, the following plots were assessed: observed versus individual predicted concentrations, weighted residuals versus time and weighted residuals versus predictions. […]
Hydrolysis of GK-667 is very fast and the parent compound was essentially completely cleared from plasma within 10 min after injection. ICRF-193 was quantitatively dominating at the first sampling interval (5 min). […]

[10] = Post-preparation stability of the extracted analytes in autosampler (8 °C); type: physicochemical
Protocol: Linearity was tested within the concentration range of 0.2 – 100 μM for all compounds in DMEM, the buffer and plasma and 10-100 pmol/106cells in NVCMs (method I). For […]
Unweighted and weighted (1/x and 1/x2) linear regression was applied to obtain the best fitting calibration model.
Accuracy and precision were calculated at 4 levels (LLOQ, low, medium and high concentrations). Five quality control (QC) samples were used for all concentration levels. […]
as §11
plasma was tested at -80 °C and the freezing cycle was repeated twice (n=3). The buffer, DMEM, NVCMs and plasma samples containing GK -667 from in vitro studies and from first intervals of pharmacokinetic study (up to 20 min) w ere treated and analyzed immediately after […]

[11] = Process stability in untreated plasma; type: in vitro ADME, rabbit; settings: 23 °C, 20 min
Protocol: Linearity was tested within the concentration range of 0.2 – 100 μM for all compounds in DMEM, the buffer and plasma and 10-100 pmol/106cells in NVCMs (method I). For method II, the concentration ranges 0.01-15 μM and 0.01-1 μM were used for determination of ICRF-193 and ICRF-193met in plasma, respectively. Unweighted and weighted (1/x and 1/x2) linear regression was applied to obtain the best fitting calibration model. […]
as §11

[12] = DEX in the same species (rabbit)
[13] = male, New Zealand White, rabbit, plasma, iv, rabbits n = 6, GK-667 5 mg/kg i.v., NCA
[14] = rabbits n = 6, GK-667 5 mg/kg i.v., NCA

Structure (SMILES): C[C@@H](CN(CC(N)=O)CC(=O)O)N(CC(N)=O)CC(=O)O [ADR-925]
half-life of elimination ([1]; ADR-925 formed in vivo from DEX, rabbit): 2.9 h

Structure (SMILES): C[C@@H](CN1CC(=O)NC(=O)C1)N1CC(=O)NC(=O)C1 [DEX, dexrazoxane]
concentrations with significant protective effects against DAU toxicity [2]: ≥ 10 µM
clearance [1, 12]: 0.3 L/h/kg
elimination half-life [1, 12]: 2.0 h

Structure (SMILES): C[C@H]([C@H](C)N(CC(N)=O)CC(=O)O)N(CC(N)=O)CC(=O)O [ICRF-193met]
degradation in plasma on storage ([7]; -80 °C for 1 month): no significant degradation
% of initial concentration, 1st freeze-thaw cycle ([7]; initial concentration 0.05 µM): 94.1 ± 4.3%
% of initial concentration, 2nd freeze-thaw cycle ([7]; initial concentration 0.05 µM): 91.7 ± 0.7%
% of initial concentration, 1st freeze-thaw cycle ([7]; initial concentration 1.00 µM): 93.9 ± 5.7%
% of initial concentration, 2nd freeze-thaw cycle ([7]; initial concentration 1.00 µM): 91.4 ± 7.0%
half-life ([8]; male, New Zealand White, rabbit, plasma, iv, 5 mg/kg): 84 min
Cmax ([8]; male, New Zealand White, rabbit, plasma, iv, 5 mg/kg, rabbits n = 6, GK-667 5 mg/kg i.v., NCA): 800 nM
AUC [8, 13]: 2.7 µM·h
AUC(0-t) [8, 13]: 2.6 µM·h
MRT [8, 13]: 2.6 h
k el ([8]; male, New Zealand White, rabbit, plasma, iv, rabbits n = 6, GK-667 5 mg/kg i.v., NCA, read-out: λz (converted)): 0.000144 s⁻¹
Tmax ([8]; male, New Zealand White, rabbit, plasma, iv, rabbits, GK-667 5 mg/kg i.v., read-out: median tmax): 2 h
AUMClast [8, 14]: 6.5 h^2∙µM
AUMCtot [8, 14]: 7.1 h^2∙µM
Cmax [8, 14]: 830 nM
Tmax [8, 14]: 2 h
solubility (in words) ([4]; reason why it was not administered separately): poor solubility
V4 ([9]; distribution volume for ICRF-193met): 0.31 L/kg
CLICRF-193met ([9]; total clearance of ICRF-193met): 0.17 L/h/kg
percentage of initial concentration in autosampler ([10]; extracted DMEM, 100 µM, 0 h): 101.5%
percentage of initial concentration in autosampler ([10]; extracted DMEM, 100 µM, 8 h): 102.1%
percentage of initial concentration in autosampler ([10]; extracted DMEM, 100 µM, 10 h): 102.7%
percentage of initial concentration in autosampler ([10]; extracted NVCMs, 100 pmol/106 cells, 0 h): 100.0%
percentage of initial concentration in autosampler ([10]; extracted NVCMs, 100 pmol/106 cells, 8 h): 97.7%
percentage of initial concentration in autosampler ([10]; extracted NVCMs, 100 pmol/106 cells, 10 h): 95.0%
percentage of initial concentration in autosampler ([10]; extracted buffer, 100 µM, 0 h): 102.3%
percentage of initial concentration in autosampler ([10]; extracted buffer, 100 µM, 8 h): 102.0%
percentage of initial concentration in autosampler ([10]; extracted plasma, 100 µM, 0 h): 100.4%
percentage of initial concentration in autosampler ([10]; extracted plasma, 100 µM, 8 h): 96.5%
percentage of initial concentration in autosampler ([10]; extracted plasma, 100 µM, 10 h): 99.1%
stability in untreated plasma at laboratory temperature [11]: stable

The next lines start with results.

solubility [4]: ~20 mg/mL
prodrug degradation in DMEM [5]: fastest degradation
AUC0–3 h of ICRF-193 concentrations ([5]; GK-667 compared with GK-678): no statistically significant differences
Structure (SMILES): C[C@H](N)C(=O)OCN1C(=O)CN([C@H](C)[C@H](C)N2CC(=O)N(COC(=O)[C@H](C)N)C(=O)C2)CC1=O [GK-678, meso-2,3-bis(4-((S)-2-aminopropionyloxymethyl)-3,5-dioxopiperazin-1-yl)butane tetrahydrochloride]
LDH release, statistical significance compared to control [3]: n.s.
lowest concentration with significant protection against DAU-induced toxicity [6]: 3 µM

solubility [4]: ~10 mg/mL
Structure (SMILES): C[C@H]([C@H](C)N1CC(=O)N(COC(=O)[C@@H](N)Cc2ccccc2)C(=O)C1)N1CC(=O)N(COC(=O)[C@@H](N)Cc2ccccc2)C(=O)C1 [GK-691, meso-2,3-bis(4-((S)-2-amino-3-phenylpropionyloxymethyl)-3,5-dioxopiperazin-1-yl)butane tetrahydrochloride]
LDH release, statistical significance compared to control [3]: c
lowest concentration with significant protection against DAU-induced toxicity [6]: 3 µM
